Where two headings read alike, the source gives them in different places.
What was measured:
[1] = test system: symmetric dimethylation of arginine (SDMA) of PRMT5 substrates in MCF-7 cells; assay: PRMT5 Cell Target Engagement (TE) Assay; type: cell-based; conditions: Homo sapiens, MCF7, 72 h, 3 days treatment, SDMA high content imaging
Summary of the method: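 Readout is single-cell nuclear symmetric-dimethylarginine immunofluorescence (Alexa488), normalized to DMSO-treated cells. Compounds were applied to MCF-7 cells for 3 days at 37 °C, top concentration 10000 nM in 1:3 steps over ten points; curves fitted with 4-parameter robust fit.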

[2] = target: T1, Full-length (FL)-PRMT5-MEP50 enzyme complex (Homo sapiens, UniProt O14744); assay: PRMT5-MEP50 Enzyme Methylation Assay (Version A); type: biochemical
T1 construct: Full-length (FL)-PRMT5-MEP50 enzyme complex (recombinant proteins from baculovirus-transfected Sf21 cells: FL-PRMT5; MW=73837 kDa and FL-MEP50; MW=38614); made in house; host or cells: baculovirus-transfected Sf21 cells
T1 sequence (O14744 whole entry): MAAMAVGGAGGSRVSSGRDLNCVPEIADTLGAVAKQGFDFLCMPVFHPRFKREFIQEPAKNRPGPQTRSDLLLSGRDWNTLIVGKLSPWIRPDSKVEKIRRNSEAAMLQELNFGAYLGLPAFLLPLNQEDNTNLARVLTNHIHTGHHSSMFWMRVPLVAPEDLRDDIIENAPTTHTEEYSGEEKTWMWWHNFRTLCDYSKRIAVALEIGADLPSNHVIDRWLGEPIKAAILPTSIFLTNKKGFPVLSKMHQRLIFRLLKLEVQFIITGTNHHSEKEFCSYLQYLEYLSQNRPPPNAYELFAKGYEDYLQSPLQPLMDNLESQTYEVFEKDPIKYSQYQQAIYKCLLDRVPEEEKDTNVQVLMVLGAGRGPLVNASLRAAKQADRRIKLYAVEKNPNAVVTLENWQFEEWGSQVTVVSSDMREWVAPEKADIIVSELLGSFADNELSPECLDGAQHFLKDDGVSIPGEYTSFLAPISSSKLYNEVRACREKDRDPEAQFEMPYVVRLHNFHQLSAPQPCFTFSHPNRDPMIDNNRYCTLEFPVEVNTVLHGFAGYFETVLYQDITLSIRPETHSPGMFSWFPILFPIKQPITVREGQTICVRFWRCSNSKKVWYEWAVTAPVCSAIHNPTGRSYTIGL
T1 sequence (Q9BQA1 whole entry partner): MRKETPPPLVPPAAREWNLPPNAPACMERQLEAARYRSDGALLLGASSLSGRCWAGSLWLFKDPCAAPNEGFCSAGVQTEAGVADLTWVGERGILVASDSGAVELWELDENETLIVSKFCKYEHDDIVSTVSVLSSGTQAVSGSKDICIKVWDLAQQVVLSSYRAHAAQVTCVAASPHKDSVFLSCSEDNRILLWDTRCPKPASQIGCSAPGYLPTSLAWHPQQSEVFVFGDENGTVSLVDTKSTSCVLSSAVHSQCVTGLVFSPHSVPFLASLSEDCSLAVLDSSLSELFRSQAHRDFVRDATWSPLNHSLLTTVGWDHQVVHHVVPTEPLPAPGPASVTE
Summary of the method: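 Compound was pre-incubated with enzyme for 60 min, then reacted 150 min at 37° C. at final 1.0 nM PRMT5-MEP50, 15 μM SAM and 75 nM biotinylated H4R3(Me1) peptide, in 50 mM Bicine pH 8.0 with 1% DMSO. SAMDI mass-spectrometric readout of Me1→Me2 conversion. EC50 from 4- or 7-parameter regression.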

[3] = single EC50 = 4 parameter single site sigmoidal fit, EC50 1 = first value of 7 parameter biphasic fit, read-out: Enzyme Methylation Assay Version A (EC50 or EC50 1)
[4] = second value of 7 parameter biphasic fit, read-out: Enzyme Methylation Assay Version A (EC50 2)

CO[C@H](C)c1cc(-c2ccnn2C(C)C)cn2cc(C(=O)N3CC[C@]4(Cc5ccccc5CN4)[C@H](O)C3)nc12 [Example 243, [(3R,3′R)-3′-hydroxy-1,4-dihydro-1′H,2H-spiro[isoquinoline-3,4′-piperidin]-1′-yl]{6-(1-isopropyl-1H-pyrazol-5-yl)-8-[(1R)-1-methoxyethyl]imidazo[1,2-a]pyridin-2-yl}methanone]
EC50 [1]: 3.59 nM
EC50 [2, 3]: 1.17 nM

CO[C@H](C)c1cc(-c2sc(C)nc2C)cn2cc(C(=O)N3CC[C@]4(Cc5ccccc5CN4)[C@H](O)C3)nc12 [Example 244, {6-(2,4-dimethyl-1,3-thiazol-5-yl)-8-[(1R)-1-methoxyethyl]imidazo[1,2-a]pyridin-2-yl}[(3R,3′R)-3′-hydroxy-1,4-dihydro-1′H,2H-spiro[isoquinoline-3,4′-piperidin]-1′-yl]methanone]
EC50 [1]: 1.68 nM
EC50 [2, 3]: 0.675 nM

CO[C@H](C)c1cc(-c2cnn(C)c2C)cn2cc(C(=O)N3CC[C@]4(Cc5ccccc5CN4)[C@H](O)C3)nc12 [Example 245, {6-(1,5-dimethyl-1H-pyrazol-4-yl)-8-[(1R)-1-methoxyethyl]imidazo[1,2-a]pyridin-2-yl}[(3R,3′R)-3′-hydroxy-1,4-dihydro-1′H,2H-spiro[isoquinoline-3,4′-piperidin]-1′-yl]methanone]
EC50 [1]: 2.65 nM
EC50 [2, 3]: 1.24 nM

CO[C@H](C)c1cc(-c2conc2C)cn2cc(C(=O)N3CC[C@]4(Cc5ccccc5CN4)[C@H](O)C3)nc12 [Example 246, [(3R,3′R)-3′-hydroxy-1,4-dihydro-1′H,2H-spiro[isoquinoline-3,4′-piperidin]-1′-yl]{8-[(1R)-1-methoxyethyl]-6-(3-methyl-4-isoxazolyl)imidazo[1,2-a]pyridin-2-yl}methanone]
EC50 [1]: 6.31 nM
EC50 [2, 3]: 0.977 nM

CO[C@H](C)c1cc(CN2CCCC2)cn2cc(C(=O)N3CC[C@]4(Cc5ccccc5CN4)[C@H](O)C3)nc12 [Example 247, [(3R,3′R)-3′-hydroxy-1,4-dihydro-1′H,2H-spiro[isoquinoline-3,4′-piperidin]-1′-yl]{8-[(1R)-1-methoxyethyl]-6-(1-pyrrolidinylmethyl)imidazo[1,2-a]pyridin-2-yl}methanone]
EC50 [1]: 75.3 nM
EC50 [2, 4]: 646 nM
EC50 [2, 3]: 0.661 nM

COCc1nc(C)cn2cc(C(=O)N3CC[C@]4(Cc5ccccc5CN4)[C@H](O)C3)nc12 [Example 250, [(3R,3′R)-3′-hydroxy-1,4-dihydro-1′H,2H-spiro[isoquinoline-3,4′-piperidin]-1′-yl][8-(methoxymethyl)-6-methylimidazo[1,2-a]pyrazin-2-yl]methanone]
EC50 [1]: 1730 nM
EC50 [2, 3]: 610 nM

COc1nc2nc(C(=O)N3CC[C@]4(Cc5ccccc5CN4)[C@H](O)C3)cn2cc1C1CC1 [Example 251, (6-cyclopropyl-7-methoxyimidazo[1,2-a]pyrimidin-2-yl)[(3R,3′R)-3′-hydroxy-1,4-dihydro-1′H,2H-spiro[isoquinoline-3,4′-piperidin]-1′-yl]methanone]
EC50 [1]: 1850 nM
EC50 [2, 3]: 547 nM

Cc1cn2cc(C(=O)N3CC[C@]4(Cc5ccccc5CN4)[C@H](O)C3)nc2c(Cl)n1 [Example 252, (8-chloro-6-methylimidazo[1,2-a]pyrazin-2-yl)[(3R,3′R)-3′-hydroxy-1,4-dihydro-1′H,2H-spiro[isoquinoline-3,4′-piperidin]-1′-yl]methanone]
EC50 [1]: 680 nM
EC50 [2, 4]: 7080 nM
EC50 [2, 3]: 11.7 nM

CC1OC(=O)Nc2cc(C(=O)N3CC[C@]4(Cc5ccccc5CN4)[C@H](O)C3)ccc21 (stereo partly drawn) [compound 171, 7-{[(3R,3′R)-3′-hydroxy-1,4-dihydro-1′H,2H-spiro[isoquinoline-3,4′-piperidin]-1′-yl]carbonyl}-4-methyl-1,4-dihydro-2H-3,1-benzoxazin-2-one]
EC50 [1]: 6.47 nM
EC50 [2, 4]: 733 nM
EC50 [2, 3]: 0.929 nM

Source: patent US12441730B2, “PRMT5 inhibitors” (Merck Sharp & Dohme LLC, priority 2019, dated 2025)
